Assay results from patent US7211246B2, “Compositions comprising oestrone-3-0-sulphamate and trail (TNF-related apoptosis inducing ligand)” (Sterix Limited, priority 2001, dated 2007).

B1: TRAIL: Tumour necrosis factor (TNF) related apoptosis inducing ligand; recombinant human TRAIL used in the tests (protein, UniProt P50591 1-281, looked up)
Tumor necrosis factor ligand …: MAMMEVQGGPSLGQTCVLIVIFTVLLQSLCVAVTYVYFTNELKQMQDKYSKSGIACFLKEDDSYWDPNDEESMNSPCWQVKWQLRQLVRKMILRTSEETISTVQEKQQNISPLVRERGPQRVAAHITGTRGRSNTLSSPNSKNEKALGRKINSWESSRSGHSFLSNLHLRNGELVIHEKGFYYIYSQTYFRFQEEIKENTKNDKQMVQYIYKYTSYPDPILLMKSARNSCWSKDAEYGLYSIYQGGIFELKENDRIFVSVTNEHLIDMDHEASFFGAFLVG

Key:
MCF-7 cells = experiment: Cell Titre 96 Aqueous One Solution cell proliferation assay, MCF-7 cells; assay type: cell-based; details: 24 hrs
Protocol: (§1) FIGS. 1A to 1C show effects of 2-MeOEMATE and 2-EtEMATE on TRAIL induced apoptosis in CAL51 and MCF-7 cells. Cell proliferation assays in which CAL51 cells or MCF7 cells were plated at a density of 5,000 in 96 well plates and treated with 0, 0.05, 0.5 or 5 μM MeoEMATE or 2-EtEMATE in the presence of 0, 50 or 250 ng/ml recombinant human TRAIL. Results are the mean of triplicates+/−S.D. and are expressed as a percentage of results for untreated cells.
(§2) Cell proliferation was measured using the Cell Titre 96 Aqueous One Solution Cell proliferation assay (Promega). This is a colorimetric method which determines cell viability and can therefore be used to measure the ability of drugs to cause cell death. The assay is performed by adding the cell proliferation reagent directly to the cells. Metabolically active cells convert the reagent to a coloured formazan product and the absorbance at 490 nm is measured 1–4 hrs after incubation at 37° C.
(§3) For the TRAIL co-operation experiments, CAL-51 of MCF-7 cells were plated at 5,000 cells per well in 96 well plates. CAL-51 cells were treated with 0, 0.05, 0.5 or 5 μM 2-MeOEMATE or 2-EtEMATE in the presence of 0, 50 or 250 ng/ml recombinant human TRAIL. MCF7 cells were treated with 5 μM 2-MeOEMATE or 2-EtEMATE in the presence or absence of 250 ng/ml recombinant human TRAIL. Cell proliferation was measured 2 days (CAL-51) or 1 day (MCF-7) after addition of drugs. Tests were performed in triplicate and data are means of triplicate results+/−S.D. and are expressed as a percentage of results obtained for untreated cells. Experiments on CAL-51 cells were performed 4 times for each compound and once for each compound on MCF-7 cells.

DR4 mRNA = experiment: RNAse protection assay, DR4 mRNA levels in Cal51 cells; assay type: cell-based, Human; details: 0.5 μM, over 48 hours
Protocol: (§4) RNAse protection assay showing DR5, DR4 and GAPDH mRNA levels at 0, 8, 16, 24 and 48 hours following treatment with 0.5 μM 2-MeOEMATE and 2-EtEMATE in Cal51 cells.
(§5) We investigated if the co-operation observed between TRAIL and 2-MeOEMATE or 2-EtEMATE to induce cell death in CAL51 cells was due to upregulation of DR4 and/or DR5 receptors by 2-MeOEMATE and 2-EtEMATE. We used RNAse protection assays to examine the levels of mRNAs for DR4 and DR5 following treatment of CAL51 cells with 2-MeOEMATE and 2-EtEMATE over 48 hours.
(§6) This experiment was performed once. A radiolabeled RNA multi-probe was synthesised (Pharmingen RiboQuant Human Apoptosis Multiprobe template set hAPO-3c) using [α^32P] UTP and […] RNA polymerase. This multi-probe template set allows simultaneous generation of several probes for detection and measurement of apoptosis related genes. […]
(§7) Total RNA was prepared using Trizol reagent (Gibco-BRL) from CAL-51 cells treated with 2-MeOEMATE or 2-EtEMATE for 0, 8, 16, 24 and 48 hrs. […] The gel was dried and analysed by phosphoimaging on the Personal Molecular Imager Fx (Biorad). Protected fragment bands corresponding to DR5 and GAPDH were quantified and expressed as a ratio of DR5/GAPDH to normalise results.

DR5 protein = experiment: Western blot of DR5 protein levels in Cal51 cells; assay type: cell-based; details: 48 hours, 0.05, 0.5 and 5 μM
Protocol: FIG. 6. […] Western blot showing DR5 protein levels following treatment of Cal51 cells for 48 hours with 0, 0.05, 0.5 and 5 μM of 2-MeOEMATE or 2-EtEMATE. PCNA levels represent corresponding loading controls.
Protein lysates were prepared from CAL51 cells treated with various compounds and analysed for expression of DR5 by immunoblotting (FIG. 6).

DR5 mRNA = experiment: RNAse protection assay, DR5 mRNA levels in Cal51 cells; assay type: cell-based, Human; details: 0.5 μM, between 24 and 48 hours
Protocol: as §4, §5, §6, §7

caspase 3 = experiment: Western blot of caspase 3 activation in Cal51 cells; assay type: cell-based; details: Cal51 cells, 48 hours; for activation of caspase 3 compared to compound alone: 5 μM compound in combination with 250 ng/ml TRAIL; for activation of caspase 3 (reduction of unprocessed caspase 3): treatment alone, 5 μM compound or 250 ng/ml TRAIL
Protocol: FIG. 3. Effect of 2-MeOE2bisMATE on caspase 8 and caspase 3 activation and PARP cleavage in Cal51 cells. Western blots showing caspase 8 and caspase 3 unprocessed and active fragments and PARP uncleaved and cleaved products following treatment of Cal51 cells with solvent, 0.05, 0.5 or 5 μM 2-MeOE2bisMATE for 48 hours.
FIG. 5. Effect of 2-MeOE2bisMATE on the timing of caspase 3 and caspase 8 activation and PARP cleavage in Cal51 cells. Western blots showing caspase 3, caspase 8 and PARP unprocessed and cleaved products at 0, 8, 16, 24 and 48 hrs following treatment of Cal51 cells with 5 μM 2-MeOE2bisMATE for 48 hrs or untreated for 48 hrs (48NT).
FIG. 7. Effect of combined treatment of 2-EtEMATE or 2-MeOEMATE and TRAIL on caspase 3 activation in Cal51 cells. Western blots showing caspase 3 activation following treatment of Cal51 cells for 48 hours with solvent, 250 ng/ml TRAIL and 5 μM 2-EtEMATE or 2-MeOEMATE in the presence or absence of 250 ng/ml TRAIL. PCNA levels represent corresponding loading controls. 1, control; 2, THF solvent; 3, TRAIL; 4, 2-EtEMATE; 5,2-EtEMATE+TRAIL; 6, control; 7, THF solvent; 8, TRAIL; 9, 2-MeOEMATE; 10, 2-MeOEMATE+TRAIL
To determine whether caspases might play a role in cell death induced by 2-MeOE2bisMATE and other sulfamoylated oestrogen derivatives, we examined the expression of caspase 3, caspase 8 and PARP by immunoblotting (FIG. 3). […] Therefore, cell death induced by the 2-MeOE2bisMATE in Cal51 cells is associated with caspase activation.
There are two major pathways of apoptosis; cell surface death receptors activate caspases directly via activation of caspase 8 whereas other apoptotic stimuli operate via triggering the release of cytochrome c from mitochondria which subsequently activates caspases. Both pathways ultimately result in activation of caspase 3 and PARP cleavage. Since activation of caspase 8 is an indicator for the direct involvement of death receptors, it is important to determine whether activation of caspase 8 by 2-MeOE2bisMATE precedes or follows caspase 3 activation. We therefore performed time course experiments in Cal51 cells treated with 2-MeOE2bisMATE to order the activation events. Caspase 3 activation was first detected at 16 hours and as expected was followed by PARP cleavage at 24 hours (FIG. 5). Caspase 8 activation was a relatively late event, first detected at 48 hours. Therefore activation of caspase 3 induced by 2-MeOE2bisMATE precedes activation of caspase 8.
To further explore the mechanism for co-operation between sulfamoylated oestrones and TRAIL, we analysed activation of caspase 3 (FIG. 7). […] Therefore, sulfamoylated oestrones and TRAIL cooperate to activate caspase 3.

CAL51 cells = experiment: Cell Titre 96 Aqueous One Solution cell proliferation assay, CAL51 cells; assay type: cell-based; details: 2 days; for cell death compared to treatment with compound alone: in combination with TRAIL (50 or 250 ng/ml)
Protocol: as §1, §2, §3

E1-STS [1] = target: T1, E1-STS (Homo sapiens, UniProt P08842); details: cited from earlier work
T1 sequence (P08842 22-583): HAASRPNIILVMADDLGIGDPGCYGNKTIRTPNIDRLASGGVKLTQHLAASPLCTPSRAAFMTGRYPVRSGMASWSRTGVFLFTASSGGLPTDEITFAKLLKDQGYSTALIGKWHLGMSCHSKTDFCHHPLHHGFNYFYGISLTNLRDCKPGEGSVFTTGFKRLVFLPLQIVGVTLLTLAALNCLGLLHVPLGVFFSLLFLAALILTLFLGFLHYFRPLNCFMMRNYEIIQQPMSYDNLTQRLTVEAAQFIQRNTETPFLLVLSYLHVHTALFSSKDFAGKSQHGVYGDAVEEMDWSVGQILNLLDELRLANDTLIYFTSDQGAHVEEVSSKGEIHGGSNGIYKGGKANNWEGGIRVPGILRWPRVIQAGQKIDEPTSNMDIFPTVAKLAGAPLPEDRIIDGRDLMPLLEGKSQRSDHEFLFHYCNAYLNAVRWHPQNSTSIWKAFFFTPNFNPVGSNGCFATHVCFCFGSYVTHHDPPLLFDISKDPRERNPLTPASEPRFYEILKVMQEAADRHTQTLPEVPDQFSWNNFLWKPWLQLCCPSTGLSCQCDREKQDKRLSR

E1-STS [2] = target: T1, E1-STS; set-up: E1-STS activity in intact MCF-7 cells; endogenous in cells; host or cells: MCF-7 cells; details: intact MCF-7 cells, 0.1 μM; cited from earlier work
[3] = 5 μM compound in combination with 250 ng/ml TRAIL
[4] = treatment alone, 5 μM compound or 250 ng/ml TRAIL

| Molecule | cell death (MCF-7 cells; [3]) | cell death (MCF-7 cells; [4]) | DR4 mRNA levels (DR4 mRNA) | DR5 protein levels by western blot (DR5 protein) | DR5 mRNA levels (DR5/GAPDH) compared to untreated control (DR5 mRNA) | activation of caspase 3 compared to compound alone (caspase 3) | activation of caspase 3 (reduction of unprocessed caspase 3) (caspase 3) | cell death compared to treatment with compound alone (CAL51 cells) | inhibition of the E1-STS enzyme (E1-STS [1]) | inhibition of E1-STS activity (E1-STS [2]) | TRAIL induced cell death (CAL51 cells; TRAIL alone (50 or 250 ng/ml)) |
| --- | --- | --- | --- | --- | --- | --- | --- | --- | --- | --- | --- |
| CCc1cc2c(cc1OS(N)(=O)=O)CCC1C2CCC2(C)C(=O)CCC12 (stereo not drawn) [2-EtEMATE, 2-ethyloestrone-3-O-sulphamate] | 36% | 16% | did not change significantly | did not detect a significant increase | significantly increased | further enhanced | induced activation of caspase 3 | enhanced the amount of cell death | – | – | – |
| COc1cc2c(cc1OS(N)(=O)=O)CCC1C2CCC2(C)C(=O)CCC12 (stereo not drawn) [2-MeOEMATE, 2-methoxyoestrone-3-O-sulphamate] | 35% | 13% | did not change significantly | did not detect a significant increase | significantly increased | further enhanced | induced activation of caspase 3 | enhanced the amount of cell death | – | – | – |
| CC12CCC3c4ccc(OS(N)(=O)=O)cc4CCC3C1CCC2=O (stereo not drawn) [EMATE, oestrone-3-sulphamate] | – | – | – | – | – | – | – | – | time- and concentration-dependent manner | more than 99% | – |
| B1 | – | 12% | – | – | – | – | no detectable caspase 3 activation | – | – | – | resistant to TRAIL induced cell death |
